Like-named read-outs stand apart in the source and are kept apart here. Bridge positions count the residues as written; N and C are the ends. Ends that are not written are not given here. Peptide text beside a SMILES is read from it.
Key:
in vitro = format: cell-based, human; settings: human
Description: (§1) Cell viability and cytotoxicity of antibiotics and peptides were determined against human corneal epithelial cells (HCE-2, CRL-11135, ATCC, Manassas, Virginia, USA) using cell-counting-kit-8 (CCK-8) assay (Sigma Aldrich, Merck Life Science UK Limited, Dorset, UK) and lactate dehydrogenase (LDH) assay (ThermoFisher Scientific, UK), respectively, as per manufacturer’s guidelines. HCE-2 cells were cultured and seeded into a 96-well plate at a density of 7.5 × 10^3 cells/well and allowed to attach overnight and grew to 80–90% confluency in keratinocyte serum free medium (KSFM) supplemented with human recombinant epidermal growth factor, bovine pituitary extract, hydrocortisone, and insulin. Once the confluency reached 80–90%, the cells were incubated with treatment for 3 h before OD450 measurement was taken using BMG Clariostar microplate reader (BMG Labtech Ltd., Aylesbury, UK). Appropriate controls were used, including 0.1% Triton X-100 as positive control and KSFM as negative control. Cell viability was calculated using the following formula: [([…]) × 100; I = intensity] and cytotoxicity was calculated using the following formula: [((Itreatment – INC)/(IPC – INC)) × 100].

[1] = tested on: human corneal epithelial cells (HCE-2); experiment: in vitro; format: cell-based
Description: as §1

[2] = tested on: human corneal epithelial cells (HCE-2); experiment: cells; format: cell-based; settings: 3 h
Description: as §1

S. aureus SH1000 = experiment: microbe, parasite or virus in culture; format: cell-based, Staphylococcus aureus
Text: (§2) A range of Gram-positive and Gram-negative laboratory- and clinical-strain bacteria were used for the experiments. These included laboratory-strain methicillin-sensitive S. aureus (MSSA; including SH1000 and ATCC SA29213), laboratory-strain MRSA (ATCC MRSA43300), clinical-strain MRSA (MRSA-OS; an IK isolate), laboratory-strain methicillin-sensitive Staphylococcus epidermidis (MSSE; ATCC SE12228), laboratory invasive-strain P. aeruginosa (PAO1-L), and clinical cytotoxic-strain P. aeruginosa (PA-OS; an IK isolate).
(§3) In vitro antimicrobial efficacy of the antibiotics and designed HDPs was determined using an established MIC assay with broth microdilution method approved by the Clinical and Laboratory Standards Institute (CLSI)[64]. Briefly, the microorganisms were cultured on Tryptone Soya Agar (TSA) and incubated overnight for 18–21 h at 37 °C. Bacterial inoculums were subsequently prepared using the direct colony suspension method. Three to five bacterial colonies were obtained from the agar plate and inoculated into an Eppendorf tube containing 1 ml of cation-adjusted Muller-Hinton broth (caMHB), consisting of 20–25 mg/L calcium ions (Ca^2+) and 10–12.5 mg/L magnesium ions (Mg^2+). The bacterial suspension was adjusted to achieve a turbidity equivalent to 0.1 OD600 or 0.5 MacFarland, containing ~ 1.5 × 10^8 colony-forming unit (CFU)/ml, which was then further diluted in 1:150 in caMHB to reach a final bacterial concentration of ~ 1 × 10^6 colony forming units (CFU)/ml. Each treatment (peptide or antibiotic) was prepared in 1:2 serial dilution in 96-well polypropylene microplates (with a final treatment volume of 50 μl per well), followed by the addition of 50 μl of 1 × 10^6 CFU/ml bacteria into each well (with a final bacterial concentration of 5 × 10^5 CFU/ml).

MRSA-OS = experiment: microbe, parasite or virus in culture; format: cell-based, Staphylococcus aureus; settings: 24 h
Text: as §2, §3

P. aeruginosa PAO1-L = experiment: microbe, parasite or virus in culture; format: cell-based
Text: as §2, §3

[3] = tested on: Gram-positive or Gram-negative bacteria; experiment: MIC assay, all tested organisms summarised; format: cell-based; settings: summary over the organisms tested, without salt
Text: as §2
In vitro antimicrobial efficacy of the antibiotics and designed HDPs was determined using an established MIC assay with broth microdilution method approved by the Clinical and Laboratory Standards Institute (CLSI)[64]. Briefly, the microorganisms were cultured on Tryptone Soya Agar (TSA) and incubated overnight for 18–21 h at 37 °C. Bacterial inoculums were subsequently prepared using the direct colony suspension method. Three to five bacterial colonies were obtained from the agar plate and inoculated into an Eppendorf tube containing 1 ml of cation-adjusted Muller-Hinton broth (caMHB), consisting of 20–25 mg/L calcium ions (Ca^2+) and 10–12.5 mg/L magnesium ions (Mg^2+). […]

[4] = 0 mM NaCl, caMHB, 24 h, listed as LL-37
[5] = 0 mM NaCl, caMHB, 24 h, read-out: MIC

## CC[C@H](C)[C@H](NC(=O)[C@H](CCCNC(=N)N)NC(=O)[C@H](CCC(N)=O)NC(=O)[C@@H](NC(=O)[C@@H](NC(=O)[C@H](CCCNC(=N)N)NC(=O)[C@@H](N)CCCCN)[C@@H](C)CC)C(C)C)C(=O)N[C@@H](CCCCN)C(=O)N[C@@H](CC(=O)O)C(=O)N[C@@H](Cc1ccccc1)C(=O)N[C@@H](CC(C)C)C(=O)N[C@@H](CCCNC(=N)N)C(=O)N[C@@H](CCCCN)C(=O)N[C@@H](CS)C(=O)N[C@@H](CS)C(=O)N[C@@H](CCCCN)C(=O)N[C@@H](CCCCN)C(=O)N1CCC[C@H]1C(=O)O [CaD2, KRIVQRIKDF LRKCCKKP] (H-KRIVQRIKDFLRKCCKKP-OH; N-terminus and C-terminus assumed)
In vitro
  CC50 at 3 h: > 200 µg/mL
[1]
  Lmax (%): percentage of cytotoxicity at 200 µg/ml: 2.9 (2.2) %
[2]
  IC50 (concentration causing 50% inhibition of cell viability): > 200 µg/mL
S. aureus SH1000; SH1000, 24 h
  MIC: > 200 µg/mL
MRSA-OS; -OS
  MIC: > 200 µg/mL
P. aeruginosa PAO1-L; PAO1, 24 h
  MIC: > 200 µg/mL

## CC[C@H](C)[C@H](NC(=O)[C@H](CCCCN)NC(=O)[C@H](CCC(=O)O)NC(=O)[C@H](CCCCN)NC(=O)[C@H](CO)NC(=O)[C@H](CCCCN)NC(=O)[C@H](CCCNC(=N)N)NC(=O)[C@H](Cc1ccccc1)NC(=O)[C@H](Cc1ccccc1)NC(=O)[C@H](CC(=O)O)NC(=O)CNC(=O)[C@H](CC(C)C)NC(=O)[C@@H](N)CC(C)C)C(=O)NCC(=O)N[C@@H](CCCCN)C(=O)N[C@@H](CCC(=O)O)C(=O)N[C@@H](Cc1ccccc1)C(=O)N[C@@H](CCCCN)C(=O)N[C@@H](CCCNC(=N)N)C(=O)N[C@H](C(=O)N[C@H](C(=O)N[C@@H](CCC(N)=O)C(=O)N[C@@H](CCCNC(=N)N)C(=O)N[C@H](C(=O)N[C@@H](CCCCN)C(=O)N[C@@H](CC(=O)O)C(=O)N[C@@H](Cc1ccccc1)C(=O)N[C@@H](CC(C)C)C(=O)N[C@@H](CCCNC(=N)N)C(=O)N[C@@H](CC(N)=O)C(=O)N[C@@H](CC(C)C)C(=O)N[C@H](C(=O)N1CCC[C@H]1C(=O)N[C@@H](CCCNC(=N)N)C(=O)N[C@H](C(=O)N[C@@H](CCC(=O)O)C(=O)N[C@@H](CO)C(=O)O)[C@@H](C)O)C(C)C)[C@@H](C)CC)C(C)C)[C@@H](C)CC [LL37, LLGDFFRKSKEKIGKEFKRIVQRIKDFLRNLVPRTES, reference compound]
[3]
  MIC: 25 to 50 µg/mL
S. aureus SH1000; 0 mM NaCl, caMHB, 24 h
  MIC: 25 µg/mL
S. aureus SH1000; [4]
  MIC: 25.0 µg/mL
S. aureus SH1000; [5]
  MIC: 5.6 µM
MRSA-OS; 0 mM NaCl, caMHB
  MIC: 25 µg/mL
MRSA-OS; 0 mM NaCl, caMHB, listed as LL-37
  MIC: 25 µg/mL
MRSA-OS; 0 mM NaCl, caMHB, read-out: MIC
  MIC: 5.6 µM
P. aeruginosa PAO1-L; 0 mM NaCl, caMHB, 24 h
  MIC: 50 µg/mL
P. aeruginosa PAO1-L; [4]
  MIC: 50 µg/mL
P. aeruginosa PAO1-L; [5]
  MIC: 11.1 µM

## GIGDPVTCLKSGAICHPVFCPRRYKQIGTCGLPGTKCCKKP (disulfide 8-37, 15-30, 20-38 (inferred)) [HBD2, GIGDPVTCLKSGAICHPVFCPRRYKQIGTCGLPGTKCCKKP]
[3]
  MIC: 100 µg/mL

From article PMC8443647, “Hybrid derivative of cathelicidin and human beta defensin-2 against Gram-positive bacteria: A novel approach for the treatment of bacterial keratitis” (Scientific Reports, 2021)
